# Earlier results, collected in patent US12497429B2, “Saponin-based vaccine adjuvants” (priority 2018, dated 2025).
# Conditions: compared to vaccine alone
substance,measurement,value
monophosphoryl lipid A [MPL],boost of serum Ab titers,10-20 fold
